No end group written: not given here.
Assays:
[1] = tested on: Weissella viridescens NRRL B-1951; test: HPLC of culture supernatants: consumption of glucose and production of organic acids with nisin; assay type: cell-based; conditions: for acetic acid in the fermentation media: MRS media originally contained 7% acetate
Protocol: (§1) 100 g MRS media was prepared to contain 5.5% solids. Two sets (one set each for nisin A and nisin Z) of eight Hach-type tubes (Kimble Chase 45066-16100) were prepared. Within each set, in order was added 5.00, 4.95, 4.90, 4.75, 4.50, 4.00, 3.50 and 3.00 g MRS media. The tubes were sealed and autoclaved.
(§2) To each tube was added, of the appropriate nisin stock, 0.00, 0.05, 0.10, 0.25, 0.50, 1.00, 1.50, and 2.00 g. Each tube was inoculated with 0.25 g of late-log W. viridescens NRRL B-1951 culture. The tubes were sealed and the absorbance at 600 nm was quickly measured (Hach DR900). The tubes were segregated by set and incubated at 31° C. overnight (15 Hr).
Each tube was sampled (1.5 mL conical polypropylene centrifuge tubes) and centrifuged at 10 kRPM for 10 minutes to remove and suspended cells. The resulting supernatants were filtered (0.2 μm nylon), diluted to 0.5% solids, and analyzed by high pressure liquid chromatography (HPLC, Agilent 1100, refractive index detector and BioRad Ainex HPX-87H column) for consumption of glucose and production of organic acids. The following table illustrates the concentration of sugars such as glucose and production of organic acids during the incubation.
Note that the MRS media originally contained 7% acetate; therefore 7% should be subtracted from the values for acetate in the above table to ascertain the amount of acetate generated during the assay.

[2] = tested on: Weissella viridescens NRRL B-1951; test: W. viridescens culture absorbance (growth) with nisin; assay type: cell-based; design: key to Corrected ABS 610rs: A600 minus background absorbance taken just after inoculation; conditions: for 91516 ABS 610f: final absorbance, uncorrected
Protocol: Purified nisin A and Z are commercially available and were acquired from Handary S. A. (Brussels Belgium). Certificates of analysis for each lot indicated purities of 95.2 and 99.6% for nisin A and Z, respectively.
100 g De-Man, Rogosa and Sharpe (MRS) media was prepared in a 500 mL Erlenmeyer to contain 5.5% solids in deionized water (18.2 MS2, Hydro Service and Supplies, Gaithersburg, Md.). The media was autoclaved (121° C. 15 min), cooled, and inoculated with 1 mL (0.5 mL culture+0.5 mL glycerol, 40%; frozen at −78° C.) of Weissella viridescens NRRL B-1951 (test strain). The culture was incubated at 31° C. overnight (15 Hr).
The next day, stock solutions of either nisin A or Z were prepared in deionized water to contain 31.3 and 33.7 μg/g of each peptide.
as §1, §2
Each tube was thoroughly mixed to suspend settled cells and the absorbance was measured again at 600 nm. The final absorbance values for each sample were corrected for their respective background (taken just after inoculation, scattered light from added cells). The corrected absorption values were a measure of W. viridescens growth. The corrected values were plotted against nisin concentration and minimum inhibiting concentration approximated via regression.

Substance: nisin Z (ITSISLCTPGCKTGALMGCNMKTATCNCSIHVSK; not fully specified (residues 2, 5, 33, bridges); also: lantibiotic (thioether rings, dehydrated residues not placed); UniProt P13068 24-57, looked up, variant H27N) [Purified nisin Z, commercially available, acquired from Handary S. A; purity 99.6%; bacteriocin peptide]
- Maltotriose in the fermentation media ([1]; nisin Z 0.34 μg/g (tube Z2)): 0.282 %/brix
- ethanol in the fermentation media ([1]; nisin Z 0.34 μg/g (tube Z2)): 0.057 %/brix
- formic acid in the fermentation media ([1]; nisin Z 0.34 μg/g (tube Z2)): 0.303 %/brix
- fructose in the fermentation media ([1]; nisin Z 0.34 μg/g (tube Z2)): 0.000 %/brix
- glucose in the fermentation media ([1]; nisin Z 0.34 μg/g (tube Z2)): 22.988 %/brix
- glycerol in the fermentation media ([1]; nisin Z 0.34 μg/g (tube Z2)): 0.343 %/brix
- lactic acid in the fermentation media ([1]; nisin Z 0.34 μg/g (tube Z2)): 6.742 %/brix
- maltose in the fermentation media ([1]; nisin Z 0.34 μg/g (tube Z2)): 0.722 %/brix
- acetic acid in the fermentation media ([1]; nisin Z 0.34 μg/g (tube Z2)): 8.273 %/brix
- Maltotriose in the fermentation media ([1]; nisin Z 1.58 μg/g (tube Z4)): 0.265 %/brix
- ethanol in the fermentation media ([1]; nisin Z 1.58 μg/g (tube Z4)): 0.083 %/brix
- formic acid in the fermentation media ([1]; nisin Z 1.58 μg/g (tube Z4)): 0.309 %/brix
- fructose in the fermentation media ([1]; nisin Z 1.58 μg/g (tube Z4)): 0.000 %/brix
- glucose in the fermentation media ([1]; nisin Z 1.58 μg/g (tube Z4)): 24.153 %/brix
- glycerol in the fermentation media ([1]; nisin Z 1.58 μg/g (tube Z4)): 0.337 %/brix
- lactic acid in the fermentation media ([1]; nisin Z 1.58 μg/g (tube Z4)): 5.081 %/brix
- maltose in the fermentation media ([1]; nisin Z 1.58 μg/g (tube Z4)): 1.007 %/brix
- acetic acid in the fermentation media ([1]; nisin Z 1.58 μg/g (tube Z4)): 8.247 %/brix
- Maltotriose in the fermentation media ([1]; nisin Z 3.19 μg/g (tube Z5)): 0.311 %/brix
- ethanol in the fermentation media ([1]; nisin Z 3.19 μg/g (tube Z5)): 0.067 %/brix
- formic acid in the fermentation media ([1]; nisin Z 3.19 μg/g (tube Z5)): 0.281 %/brix
- fructose in the fermentation media ([1]; nisin Z 3.19 μg/g (tube Z5)): 0.000 %/brix
- glucose in the fermentation media ([1]; nisin Z 3.19 μg/g (tube Z5)): 24.698 %/brix
- glycerol in the fermentation media ([1]; nisin Z 3.19 μg/g (tube Z5)): 0.321 %/brix
- lactic acid in the fermentation media ([1]; nisin Z 3.19 μg/g (tube Z5)): 2.995 %/brix
- maltose in the fermentation media ([1]; nisin Z 3.19 μg/g (tube Z5)): 0.750 %/brix
- acetic acid in the fermentation media ([1]; nisin Z 3.19 μg/g (tube Z5)): 8.026 %/brix
- Maltotriose in the fermentation media ([1]; nisin Z 6.31 μg/g (tube Z6)): 0.247 %/brix
- ethanol in the fermentation media ([1]; nisin Z 6.31 μg/g (tube Z6)): 0.059 %/brix
- formic acid in the fermentation media ([1]; nisin Z 6.31 μg/g (tube Z6)): 0.267 %/brix
- fructose in the fermentation media ([1]; nisin Z 6.31 μg/g (tube Z6)): 0.000 %/brix
- glucose in the fermentation media ([1]; nisin Z 6.31 μg/g (tube Z6)): 25.353 %/brix
- glycerol in the fermentation media ([1]; nisin Z 6.31 μg/g (tube Z6)): 0.320 %/brix
- lactic acid in the fermentation media ([1]; nisin Z 6.31 μg/g (tube Z6)): 1.351 %/brix
- maltose in the fermentation media ([1]; nisin Z 6.31 μg/g (tube Z6)): 0.726 %/brix
- acetic acid in the fermentation media ([1]; nisin Z 6.31 μg/g (tube Z6)): 7.969 %/brix
- Maltotriose in the fermentation media ([1]; nisin Z 9.54 μg/g (tube Z7)): 0.291 %/brix
- ethanol in the fermentation media ([1]; nisin Z 9.54 μg/g (tube Z7)): 0.065 %/brix
- formic acid in the fermentation media ([1]; nisin Z 9.54 μg/g (tube Z7)): 0.263 %/brix
- fructose in the fermentation media ([1]; nisin Z 9.54 μg/g (tube Z7)): 0.000 %/brix
- glucose in the fermentation media ([1]; nisin Z 9.54 μg/g (tube Z7)): 25.501 %/brix
- glycerol in the fermentation media ([1]; nisin Z 9.54 μg/g (tube Z7)): 0.335 %/brix
- lactic acid in the fermentation media ([1]; nisin Z 9.54 μg/g (tube Z7)): 1.431 %/brix
- maltose in the fermentation media ([1]; nisin Z 9.54 μg/g (tube Z7)): 0.895 %/brix
- acetic acid in the fermentation media ([1]; nisin Z 9.54 μg/g (tube Z7)): 8.026 %/brix
- Maltotriose in the fermentation media ([1]; nisin Z 12.61 μg/g (tube Z8)): 0.318 %/brix
- ethanol in the fermentation media ([1]; nisin Z 12.61 μg/g (tube Z8)): 0.148 %/brix
- formic acid in the fermentation media ([1]; nisin Z 12.61 μg/g (tube Z8)): 0.299 %/brix
- fructose in the fermentation media ([1]; nisin Z 12.61 μg/g (tube Z8)): 0.000 %/brix
- glucose in the fermentation media ([1]; nisin Z 12.61 μg/g (tube Z8)): 25.740 %/brix
- glycerol in the fermentation media ([1]; nisin Z 12.61 μg/g (tube Z8)): 0.346 %/brix
- lactic acid in the fermentation media ([1]; nisin Z 12.61 μg/g (tube Z8)): 1.652 %/brix
- maltose in the fermentation media ([1]; nisin Z 12.61 μg/g (tube Z8)): 0.876 %/brix
- acetic acid in the fermentation media ([1]; nisin Z 12.61 μg/g (tube Z8)): 8.261 %/brix
- inhibition of bacterial growth [2]: can effectively inhibit
- 91516 ABS 610f ([2]; nisin Z 0.34 μg/g (tube Z2)): 1.618
- 91516 ABS 610f ([2]; nisin Z 0.77 μg/g (tube Z3)): 1.526
- 91516 ABS 610f ([2]; nisin Z 1.58 μg/g (tube Z4)): 1.296
- 91516 ABS 610f ([2]; nisin Z 3.19 μg/g (tube Z5)): 0.801
- 91516 ABS 610f ([2]; nisin Z 6.31 μg/g (tube Z6)): 0.426
- 91516 ABS 610f ([2]; nisin Z 9.54 μg/g (tube Z7)): 0.384
- 91516 ABS 610f ([2]; nisin Z 12.61 μg/g (tube Z8)): 0.386
- Corrected ABS 610rs ([2]; nisin Z 0.34 μg/g (tube Z2)): 1.146
- Corrected ABS 610rs ([2]; nisin Z 0.77 μg/g (tube Z3)): 1.062
- Corrected ABS 610rs ([2]; nisin Z 1.58 μg/g (tube Z4)): 0.841
- Corrected ABS 610rs ([2]; nisin Z 3.19 μg/g (tube Z5)): 0.359
- Corrected ABS 610rs ([2]; nisin Z 6.31 μg/g (tube Z6)): 0.003
- Corrected ABS 610rs ([2]; nisin Z 9.54 μg/g (tube Z7)): 0.001
- Corrected ABS 610rs ([2]; nisin Z 12.61 μg/g (tube Z8)): 0.001
